The values that follow come from paper PMC11887051, “Discovery of ONO-2920632 (VU6011887): A Highly Selective and CNS Penetrant TREK-2 (TWIK-Related K+ Channel 2) Preferring Activator In Vivo Tool Compound” (ACS Chemical Neuroscience, 2025).

In general, EC50 refers to the concentration that produces a half-maximal response. Higher therefore signals weaker potency. As usually defined, the Emax is the maximal effect, on the per cent scale that the assay sets. What is called inhibition is the change of the read-out against control, counted positive when it falls. The half-life is the time needed for the level to fall by half in the phase considered. The % Inhibition is the change of the read-out against control, counted positive when it falls. As a reminder, the IC50 is the point on the concentration scale where inhibition reaches its midpoint. The low end stands for inhibition by little substance, the high end for a need for much substance.

Data set [1] concerns the target T1, TREK-1 (Homo sapiens, UniProt O95069).
T1 sequence (O95069 1-426): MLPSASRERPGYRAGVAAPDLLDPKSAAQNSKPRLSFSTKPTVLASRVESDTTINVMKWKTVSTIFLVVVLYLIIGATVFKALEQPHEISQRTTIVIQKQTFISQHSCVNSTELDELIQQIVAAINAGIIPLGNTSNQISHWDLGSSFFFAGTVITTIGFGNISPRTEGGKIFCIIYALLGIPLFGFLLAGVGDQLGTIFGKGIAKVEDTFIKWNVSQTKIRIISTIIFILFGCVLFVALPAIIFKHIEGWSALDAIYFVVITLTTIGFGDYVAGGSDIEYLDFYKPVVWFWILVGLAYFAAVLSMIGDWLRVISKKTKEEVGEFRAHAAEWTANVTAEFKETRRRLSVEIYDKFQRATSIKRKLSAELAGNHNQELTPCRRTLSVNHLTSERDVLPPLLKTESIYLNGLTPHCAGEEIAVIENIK
Nature of the data set: manual patch clamp (MPC) assay, TREK-1, species not stated. It counts as cell-based. On the technique in general: The patch-clamp technique gives a direct electrical read-out from membranes.

Data set [2] concerns the target Transporter, Serotonin (SERT) (Homo sapiens, UniProt P31645). The data set is described as follows: Eurofins Lead Profiling radioligand binding. The settings on record: title: 30 μM.
Data set [3] in a line: dog IV PK study. The settings on record: male, beagle, plasma, 0.1 mg/kg IV, HP-β-CD solution. It counts as in vivo. The procedure: Plasma and brain tissue samples originating from in vivo studies were analyzed by electrospray ionization using an AB Sciex Q-TRAP 5500 (Foster City, CA) that was coupled to a Shimadzu LC-20AD pump (Columbia, MD) and a Leap Technologies CTC PAL auto-sampler (Carrboro, NC). Analytes were separated by gradient elution using a C18 column (3 x 50 mm, 3 mm; Fortis Technologies Ltd, Cheshire, UK) that was thermostated at 40 °C. HPLC mobile phase A was 0.1% formic acid in water (pH unadjusted); mobile phase B was 0.1% formic acid in acetonitrile (pH […]
min, with an isocratic hold for 0.5 min, before transitioning to 10% B over 0.05 min. The column was re-equilibrated (1 min) before the next sample injection. The total run time was 2.55 min, and the HPLC flow rate was 0.5 ml/min. The source temperature was set at 500 °C, and mass spectral analyses were performed using a Turbo-Ion spray source in positive ionization mode (5.0-kV spray voltage) and using multiple-reaction monitoring of transitions specific for the analytes. All data were analyzed using AB Sciex Analyst 1.5.1 software. […]
For determination of the plasma concentration-time profile, compounds were formulated in methyl cellulose and administered as a 3 mg/kg PO dose to male C57BL/6 mouse or SD rat (n = 2). For the same determination, compounds were formulated in HP-β-CD and administered as a 0.1 mg/kg IV dose to male beagle dog (n = 2).
Plasma samples originating from in vivo studies were analyzed by electrospray ionization using a Q-TRAP 5500 (AB Sciex) that was coupled to a Prominence UFLC XR (Shimadzu Corporation).
Analytes were separated by gradient elution using a Shim-pack XR-ODS II (2 x 75 mm, 2.2μm, Shimadzu Corporation) that was thermostated at 40 °C. HPLC mobile phase A was 5 mM ammonium acetate containing 0.2% formic acid in water (pH unadjusted); mobile phase B was […]
hold for 1.5 min, before transitioning to 10% B over 0.1 min. The column was re-equilibrated (0.9 min) before the next sample injection. The total run time was 4.0 min, and the HPLC flow rate was 0.5 ml/min. […]

Data set [4] deals with Muscarinic M1 (Homo sapiens, UniProt P11229). The data set is described as follows: Eurofins Lead Profiling radioligand binding. The settings on record: title: 30 μM.
Data set [5] concerns GABAA, Muscimol, Central. The data set is described as follows: Eurofins Lead Profiling radioligand binding. The arrangement: species or system Rat. The settings on record: title: 30 μM.
In data set [6] the test system is Potassium Channel [KATP]. The data set is described as follows: Eurofins Lead Profiling radioligand binding. Also on record: species or system Hamster. The settings on record: title: 30 μM.
For data set [7], the target named is Muscarinic M3 (Homo sapiens, UniProt P20309). Nature of the data set: Eurofins Lead Profiling radioligand binding. The settings on record: title: 30 μM.
Data set [8] concerns the target Serotonin (5-HT1A) (Homo sapiens, UniProt P08908). Nature of the data set: Eurofins Lead Profiling radioligand binding. The settings on record: title: 30 μM.
For data set [9], the target named is Platelet Activating Factor (PAF) (Homo sapiens, UniProt P25105). Nature of the data set: Eurofins Lead Profiling radioligand binding. The settings on record: title: 30 μM.
The target of data set [10] is Nicotinic Acetylcholine α1, Bungarotoxin (Homo sapiens, UniProt P02708+P07510+Q07001). Nature of the data set: Eurofins Lead Profiling radioligand binding. The settings on record: read-out: % Inhibition at 10 µM.
Data set [11] relates to Calcium Channel L-Type, Dihydropyridine. Nature of the data set: Eurofins Lead Profiling radioligand binding. The settings on record: title: 30 μM. The arrangement: species or system Rat.
Data set [12] deals with Glutamate, NMDA, Glycine (Rattus norvegicus, UniProt P35439). Nature of the data set: Eurofins Lead Profiling radioligand binding. The settings on record: title: 30 μM.
The test system of data set [13] is Purinergic P2Y, Non-Selective. The data set is described as follows: Eurofins Lead Profiling radioligand binding. The settings on record: title: 30 μM. The arrangement: species or system Rat.
Data set [14] relates to Glycine, Strychnine-Sensitive. Nature of the data set: Eurofins Lead Profiling radioligand binding. The arrangement: species or system Rat. The settings on record: title: 30 μM.
Data set [15] concerns the target Adrenergic β2 (Homo sapiens, UniProt P07550). Nature of the data set: Eurofins Lead Profiling radioligand binding. The settings on record: title: 30 μM.
Data set [16] addresses Histamine H2 (Homo sapiens, UniProt P25021). The data set is described as follows: Eurofins Lead Profiling radioligand binding. The settings on record: title: 30 μM.
Data set [17] has as its system Rolipram. The data set is described as follows: Eurofins Lead Profiling radioligand binding. Also on record: species or system Rat. The settings on record: title: 30 μM.
Data set [18] has as its target Endothelin ETA (Homo sapiens, UniProt P25101). Nature of the data set: Eurofins Lead Profiling radioligand binding. The settings on record: title: 30 μM.
Data set [19] relates to Imidazoline I2, Central. The data set is described as follows: Eurofins Lead Profiling radioligand binding. Also on record: species or system Rat. The settings on record: title: 30 μM.
The target of data set [20] is Dopamine D2S (Homo sapiens, UniProt P14416). The data set is described as follows: Eurofins Lead Profiling radioligand binding. The settings on record: title: 30 μM.
Data set [21] has as its target Transporter, Norepinephrine (NET) (Homo sapiens, UniProt P23975). Nature of the data set: Eurofins Lead Profiling radioligand binding. The settings on record: title: 30 μM.
The test system of data set [22] is Ryanodine. The data set is described as follows: Eurofins Lead Profiling radioligand binding. The arrangement: species or system Rat. The settings on record: title: 30 μM.
Data set [23] has as its target Adrenergic α1A (Rattus norvegicus, UniProt P43140). The data set is described as follows: Eurofins Lead Profiling radioligand binding. The settings on record: title: 30 μM.
In data set [24] the target is T2, hERG (Homo sapiens, UniProt Q12809).
T2 construct: expressed in transfected cells; host or cells: HEK293
The data set is described as follows: hERG thallium flux assay. The settings on record: Tl+ flux assay. It counts as cell-based. A general note: Block of hERG is tested as a sign of cardiac risk.

Where only a bound is given, the exact number is not on record here.

Transporter, Norepinephrine (NET), sequence (P23975 whole entry): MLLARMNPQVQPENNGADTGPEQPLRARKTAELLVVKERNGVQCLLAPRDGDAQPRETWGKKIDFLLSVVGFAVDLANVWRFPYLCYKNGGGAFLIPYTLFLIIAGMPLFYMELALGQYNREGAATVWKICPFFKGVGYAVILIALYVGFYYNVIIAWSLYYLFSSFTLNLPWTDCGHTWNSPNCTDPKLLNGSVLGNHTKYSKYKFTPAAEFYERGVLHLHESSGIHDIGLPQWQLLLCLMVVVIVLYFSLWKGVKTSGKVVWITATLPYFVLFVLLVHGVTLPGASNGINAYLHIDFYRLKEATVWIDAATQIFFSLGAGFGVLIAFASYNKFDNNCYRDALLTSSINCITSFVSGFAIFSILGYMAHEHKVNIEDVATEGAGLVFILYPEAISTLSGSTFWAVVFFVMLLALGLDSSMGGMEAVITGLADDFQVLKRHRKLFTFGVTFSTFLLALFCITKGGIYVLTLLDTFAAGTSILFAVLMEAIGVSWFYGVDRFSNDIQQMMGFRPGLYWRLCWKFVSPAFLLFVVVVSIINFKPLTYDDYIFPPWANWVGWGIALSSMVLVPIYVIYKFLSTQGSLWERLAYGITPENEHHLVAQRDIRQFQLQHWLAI
T2 sequence (Q12809 whole entry): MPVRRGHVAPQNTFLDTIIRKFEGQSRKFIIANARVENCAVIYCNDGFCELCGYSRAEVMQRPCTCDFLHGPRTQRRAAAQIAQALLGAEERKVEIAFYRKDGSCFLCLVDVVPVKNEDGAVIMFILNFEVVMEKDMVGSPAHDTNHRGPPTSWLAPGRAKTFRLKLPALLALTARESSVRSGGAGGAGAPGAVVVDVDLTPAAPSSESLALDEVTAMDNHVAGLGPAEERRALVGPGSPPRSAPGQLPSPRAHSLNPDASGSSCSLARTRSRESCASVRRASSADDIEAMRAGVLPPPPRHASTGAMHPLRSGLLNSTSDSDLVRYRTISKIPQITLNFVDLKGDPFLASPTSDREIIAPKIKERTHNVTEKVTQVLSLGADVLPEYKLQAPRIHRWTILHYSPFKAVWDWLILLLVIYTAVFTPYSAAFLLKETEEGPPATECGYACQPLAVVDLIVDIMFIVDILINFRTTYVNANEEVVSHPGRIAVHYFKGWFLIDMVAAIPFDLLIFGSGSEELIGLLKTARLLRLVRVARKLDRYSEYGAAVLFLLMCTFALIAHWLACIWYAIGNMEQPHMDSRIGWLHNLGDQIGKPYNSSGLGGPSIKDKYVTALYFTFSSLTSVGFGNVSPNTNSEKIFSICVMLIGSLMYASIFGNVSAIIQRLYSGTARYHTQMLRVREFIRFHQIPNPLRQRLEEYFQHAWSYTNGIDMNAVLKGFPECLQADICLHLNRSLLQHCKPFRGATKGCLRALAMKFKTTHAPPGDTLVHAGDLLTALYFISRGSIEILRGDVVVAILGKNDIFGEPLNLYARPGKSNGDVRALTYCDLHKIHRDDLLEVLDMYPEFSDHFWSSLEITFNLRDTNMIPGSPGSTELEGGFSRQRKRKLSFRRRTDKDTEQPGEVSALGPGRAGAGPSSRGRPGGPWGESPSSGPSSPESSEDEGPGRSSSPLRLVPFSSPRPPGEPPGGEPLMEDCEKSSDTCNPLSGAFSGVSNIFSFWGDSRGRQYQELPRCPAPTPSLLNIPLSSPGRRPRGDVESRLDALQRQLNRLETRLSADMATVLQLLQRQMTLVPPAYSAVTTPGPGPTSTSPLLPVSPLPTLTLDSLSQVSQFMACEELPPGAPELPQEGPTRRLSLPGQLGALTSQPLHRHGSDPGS
Muscarinic M3, sequence (P20309 whole entry): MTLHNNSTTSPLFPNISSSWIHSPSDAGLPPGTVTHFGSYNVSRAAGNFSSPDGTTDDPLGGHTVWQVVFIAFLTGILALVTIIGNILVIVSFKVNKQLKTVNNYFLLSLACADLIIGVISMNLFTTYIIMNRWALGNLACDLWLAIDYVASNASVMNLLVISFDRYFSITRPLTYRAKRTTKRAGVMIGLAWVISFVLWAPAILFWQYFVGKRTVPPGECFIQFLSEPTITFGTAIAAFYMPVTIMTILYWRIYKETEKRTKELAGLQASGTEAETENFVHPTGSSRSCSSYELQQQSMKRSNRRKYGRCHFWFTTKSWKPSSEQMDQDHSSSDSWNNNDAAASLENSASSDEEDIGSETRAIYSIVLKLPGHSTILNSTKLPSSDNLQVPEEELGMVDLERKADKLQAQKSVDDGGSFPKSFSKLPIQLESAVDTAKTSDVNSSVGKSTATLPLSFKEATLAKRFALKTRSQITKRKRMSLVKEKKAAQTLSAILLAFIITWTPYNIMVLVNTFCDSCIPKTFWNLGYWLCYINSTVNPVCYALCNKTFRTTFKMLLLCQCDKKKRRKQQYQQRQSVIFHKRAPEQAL
Platelet Activating Factor (PAF), sequence (P25105 whole entry): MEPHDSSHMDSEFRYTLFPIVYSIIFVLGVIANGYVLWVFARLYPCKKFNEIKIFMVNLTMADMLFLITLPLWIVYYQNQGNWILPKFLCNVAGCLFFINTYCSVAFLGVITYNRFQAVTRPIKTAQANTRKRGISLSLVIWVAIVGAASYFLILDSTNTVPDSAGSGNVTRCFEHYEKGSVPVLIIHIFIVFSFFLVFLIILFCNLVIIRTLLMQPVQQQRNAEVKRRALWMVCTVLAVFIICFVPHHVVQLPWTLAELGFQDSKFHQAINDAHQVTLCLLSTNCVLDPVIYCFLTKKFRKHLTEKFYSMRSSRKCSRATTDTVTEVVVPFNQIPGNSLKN
Adrenergic β2, sequence (P07550 whole entry): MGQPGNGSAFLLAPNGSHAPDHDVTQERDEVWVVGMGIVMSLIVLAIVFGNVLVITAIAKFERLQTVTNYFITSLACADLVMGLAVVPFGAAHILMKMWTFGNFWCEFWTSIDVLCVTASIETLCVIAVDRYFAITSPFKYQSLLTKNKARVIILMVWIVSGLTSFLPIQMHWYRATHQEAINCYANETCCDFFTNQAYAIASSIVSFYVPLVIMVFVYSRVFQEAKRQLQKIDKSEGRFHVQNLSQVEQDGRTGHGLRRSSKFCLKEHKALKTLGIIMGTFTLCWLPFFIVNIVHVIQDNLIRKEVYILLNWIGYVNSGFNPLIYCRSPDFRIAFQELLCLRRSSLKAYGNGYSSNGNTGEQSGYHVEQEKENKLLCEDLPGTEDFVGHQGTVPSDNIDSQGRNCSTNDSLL
Transporter, Serotonin (SERT), sequence (P31645 whole entry): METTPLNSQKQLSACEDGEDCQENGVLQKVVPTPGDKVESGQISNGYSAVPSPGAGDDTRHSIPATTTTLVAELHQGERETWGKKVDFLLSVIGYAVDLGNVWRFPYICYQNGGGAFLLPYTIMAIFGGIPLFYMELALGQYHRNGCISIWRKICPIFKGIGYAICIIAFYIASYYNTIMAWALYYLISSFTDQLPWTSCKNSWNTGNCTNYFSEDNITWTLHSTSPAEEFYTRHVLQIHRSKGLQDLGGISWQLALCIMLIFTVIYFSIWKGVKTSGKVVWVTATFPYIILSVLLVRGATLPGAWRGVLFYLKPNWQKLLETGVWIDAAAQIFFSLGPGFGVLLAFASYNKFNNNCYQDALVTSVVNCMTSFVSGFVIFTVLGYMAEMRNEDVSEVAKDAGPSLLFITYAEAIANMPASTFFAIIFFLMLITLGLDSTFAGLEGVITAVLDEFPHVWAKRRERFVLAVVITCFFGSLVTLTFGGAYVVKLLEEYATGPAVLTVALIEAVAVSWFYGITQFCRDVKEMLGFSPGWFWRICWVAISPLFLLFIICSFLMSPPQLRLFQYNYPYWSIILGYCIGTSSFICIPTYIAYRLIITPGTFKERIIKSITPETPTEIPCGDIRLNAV
Endothelin ETA, sequence (P25101 21-427): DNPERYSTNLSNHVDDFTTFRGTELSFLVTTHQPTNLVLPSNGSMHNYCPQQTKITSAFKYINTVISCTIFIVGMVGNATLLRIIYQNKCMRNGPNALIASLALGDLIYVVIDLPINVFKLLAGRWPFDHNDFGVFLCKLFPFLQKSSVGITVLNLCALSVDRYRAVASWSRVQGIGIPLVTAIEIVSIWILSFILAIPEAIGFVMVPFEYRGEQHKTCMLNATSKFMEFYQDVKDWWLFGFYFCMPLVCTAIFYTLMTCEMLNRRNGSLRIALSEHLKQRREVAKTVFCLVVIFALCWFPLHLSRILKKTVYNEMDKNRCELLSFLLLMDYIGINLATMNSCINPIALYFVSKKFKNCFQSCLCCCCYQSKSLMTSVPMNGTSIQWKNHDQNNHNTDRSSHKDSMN
Adrenergic α1A, sequence (P43140 whole entry): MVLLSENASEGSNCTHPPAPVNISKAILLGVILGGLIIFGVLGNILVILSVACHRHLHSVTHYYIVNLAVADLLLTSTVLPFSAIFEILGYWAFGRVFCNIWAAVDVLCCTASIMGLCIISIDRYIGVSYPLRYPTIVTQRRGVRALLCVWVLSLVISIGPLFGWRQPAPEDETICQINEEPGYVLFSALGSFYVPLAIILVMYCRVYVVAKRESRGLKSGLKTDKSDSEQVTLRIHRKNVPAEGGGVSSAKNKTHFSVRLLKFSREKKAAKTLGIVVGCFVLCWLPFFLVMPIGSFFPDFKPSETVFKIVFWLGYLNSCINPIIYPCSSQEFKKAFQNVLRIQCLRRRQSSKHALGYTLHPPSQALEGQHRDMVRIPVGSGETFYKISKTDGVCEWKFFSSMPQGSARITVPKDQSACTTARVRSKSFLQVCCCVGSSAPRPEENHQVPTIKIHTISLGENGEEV
Histamine H2, sequence (P25021 whole entry): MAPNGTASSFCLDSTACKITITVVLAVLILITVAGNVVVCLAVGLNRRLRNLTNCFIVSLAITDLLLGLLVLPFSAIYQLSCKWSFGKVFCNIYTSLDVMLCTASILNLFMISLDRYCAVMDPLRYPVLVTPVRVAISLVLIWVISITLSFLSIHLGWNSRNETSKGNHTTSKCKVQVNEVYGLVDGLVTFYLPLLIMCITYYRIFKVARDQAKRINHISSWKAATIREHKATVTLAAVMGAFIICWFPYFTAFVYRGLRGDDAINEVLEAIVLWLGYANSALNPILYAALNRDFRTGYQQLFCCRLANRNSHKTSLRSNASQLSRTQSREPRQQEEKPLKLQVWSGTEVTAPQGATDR

In data set [1], `CS(=O)(=O)Nc1ccc(C(=O)NCc2ccc(Cl)cc2Cl)cc1` [Compound 13] gave an EC50 of 7.4 µM and an Emax of 99%.
Turning to `O=C(NCc1ccc(OC(F)(F)F)cc1F)c1ccc2ncnn2c1` [Compound 19b], the inhibition in [2] was 2%; in data set [4], 1%; in data set [7], 8%; in [8], 2%; in data set [9], 12%; in data set [12] it was -1%. Moreover, the inhibition in [15] is 2%; in data set [16], -20%; in data set [18] it was -3%; in data set [21], 29%; in data set [23], 2%. The molecule further showed a half-life in [3] of 22 h. Also, the clearance in [3] (read-out: CLp) was 1.3 mL/min/kg. In data set [3] (read-out: Vss), the Vd was determined as 2.2 L/kg. Further, the “% Inhibition at 10 µM” value was -1% in [5]; 13% in data set [6]; -2% in [11]; -7% in [13]; -16% in [14]; 13% in data set [17]. For the same molecule, the “% Inhibition at 10 µM” value in data set [19] is given as 2%; in data set [22], 6%. Further, the inhibition at 10 µM was 20% in [10] and 6% in [20].
The molecule `O=C(NCc1ccc(OC(F)(F)F)cc1Cl)c1ccc2nncn2c1` [Compound 20] showed an IC50 in data set [24] greater than 30 µM.
